Test results from ChEMBL document CHEMBL3243936, “Facile syntheses of potent dopaminergic argonists and their effect on neurotransmitter release” (J Med Chem, 1978).
Activity calls are given as the source filed them. No cut-off for these calls is given here.

Key:
[1] = molecular target: Sodium-dependent dopamine transporter (Rattus norvegicus) (UniProt P23977); assay: Agonist activity at Wistar rat striatum dopamine transporter assessed as tritium efflux by measuring [3H]dopamine release at 2 uM after 20 mins by liquid scintillation counting analysis relative to total tissue content
[2] = molecular target: Sodium-dependent serotonin transporter (Rattus norvegicus) (UniProt P31652); assay: Agonist activity at Wistar rat brain serotonin transporter assessed as tritium efflux by measuring [3H]serotonin release at 2 uM after 20 to 30 mins by liquid scintillation counting analysis relative to control
[3] = organism: Rattus norvegicus; assay: Agonist activity at Wistar rat brain GABA transporter assessed as tritium efflux by measuring [3H]GABA release at 2 uM after 20 to 30 mins by liquid scintillation counting analysis relative to control
[4] = molecular target: T1, Vesicular acetylcholine transporter (Rattus norvegicus) (UniProt Q62666); assay: Agonist activity at Wistar rat brain cholinergic transporter assessed as tritium efflux by measuring [3H]choline release at 2 uM after 20 to 30 mins by liquid scintillation counting analysis relative to control
T1 sequence (whole entry): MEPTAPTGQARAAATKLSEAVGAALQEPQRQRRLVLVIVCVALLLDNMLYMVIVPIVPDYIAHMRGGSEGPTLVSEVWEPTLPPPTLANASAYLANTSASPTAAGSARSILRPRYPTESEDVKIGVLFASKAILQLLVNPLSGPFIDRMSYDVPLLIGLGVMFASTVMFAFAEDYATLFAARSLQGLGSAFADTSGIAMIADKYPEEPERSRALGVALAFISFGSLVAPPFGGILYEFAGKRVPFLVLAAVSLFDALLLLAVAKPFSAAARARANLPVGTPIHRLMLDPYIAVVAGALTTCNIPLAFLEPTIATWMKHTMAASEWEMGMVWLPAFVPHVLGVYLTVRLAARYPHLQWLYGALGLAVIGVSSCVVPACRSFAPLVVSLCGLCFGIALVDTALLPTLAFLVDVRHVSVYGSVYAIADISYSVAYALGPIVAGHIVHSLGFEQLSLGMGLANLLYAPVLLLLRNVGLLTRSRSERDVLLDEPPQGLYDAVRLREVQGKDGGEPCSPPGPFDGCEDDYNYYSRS

[5] = molecular target: Sodium-dependent dopamine transporter (Rattus norvegicus) (UniProt P23977); assay: Agonist activity at Wistar rat striatum dopamine transporter assessed as tritium efflux by measuring [3H]dopamine release at 1 uM after 20 to 30 mins by liquid scintillation counting analysis in presence of nomifensine
[6] = molecular target: Sodium-dependent dopamine transporter (Rattus norvegicus) (UniProt P23977); assay: Agonist activity at Wistar rat cortex dopamine transporter assessed as tritium efflux by measuring [3H]noradrenaline release at 1 uM after 20 to 30 mins by liquid scintillation counting analysis in presence of nomifensine; format: tissue-based

Chain of Sodium-dependent dopamine transporter (Rattus norvegicus) (P23977 whole entry): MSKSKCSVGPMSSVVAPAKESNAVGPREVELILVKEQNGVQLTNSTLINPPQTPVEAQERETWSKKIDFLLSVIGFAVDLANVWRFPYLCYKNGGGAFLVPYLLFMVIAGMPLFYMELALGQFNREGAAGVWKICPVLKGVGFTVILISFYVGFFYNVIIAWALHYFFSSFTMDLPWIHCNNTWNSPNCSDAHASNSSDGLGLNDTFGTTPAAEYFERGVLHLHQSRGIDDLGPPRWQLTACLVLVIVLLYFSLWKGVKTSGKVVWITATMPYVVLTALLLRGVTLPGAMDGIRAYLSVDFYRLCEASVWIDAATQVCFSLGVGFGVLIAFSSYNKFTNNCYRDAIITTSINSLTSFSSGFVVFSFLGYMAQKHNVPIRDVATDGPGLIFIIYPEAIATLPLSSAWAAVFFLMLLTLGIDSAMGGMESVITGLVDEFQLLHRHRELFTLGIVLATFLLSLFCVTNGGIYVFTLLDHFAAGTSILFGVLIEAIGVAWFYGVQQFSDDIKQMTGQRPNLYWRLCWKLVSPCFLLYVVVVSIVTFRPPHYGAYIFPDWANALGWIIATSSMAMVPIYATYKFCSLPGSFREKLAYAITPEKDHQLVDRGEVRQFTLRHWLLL
Chain of Sodium-dependent serotonin transporter (Rattus norvegicus) (P31652 whole entry): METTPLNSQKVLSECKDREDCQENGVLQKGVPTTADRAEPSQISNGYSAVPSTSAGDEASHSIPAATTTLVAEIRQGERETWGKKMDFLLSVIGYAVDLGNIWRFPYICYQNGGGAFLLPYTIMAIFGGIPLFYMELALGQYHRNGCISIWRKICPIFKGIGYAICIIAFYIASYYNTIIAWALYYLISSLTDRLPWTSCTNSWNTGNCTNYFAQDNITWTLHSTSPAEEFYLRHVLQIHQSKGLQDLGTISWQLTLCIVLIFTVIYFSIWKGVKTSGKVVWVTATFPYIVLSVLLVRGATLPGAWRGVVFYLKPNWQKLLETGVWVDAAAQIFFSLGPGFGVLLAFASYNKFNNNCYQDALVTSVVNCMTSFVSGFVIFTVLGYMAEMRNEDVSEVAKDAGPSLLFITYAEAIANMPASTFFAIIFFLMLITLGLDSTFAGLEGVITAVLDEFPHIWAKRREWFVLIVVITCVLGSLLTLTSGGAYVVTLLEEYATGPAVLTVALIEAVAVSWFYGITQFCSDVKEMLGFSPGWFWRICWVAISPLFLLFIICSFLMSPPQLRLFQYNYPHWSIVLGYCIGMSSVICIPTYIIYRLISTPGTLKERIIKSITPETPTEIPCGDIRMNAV

Row | Structure (SMILES) | Activity [1] [%] | Activity [2] | Activity [3] | Activity [4] | Activity [5] | Activity [6]
1 | NC1CCc2cc(O)c(O)cc2C1 (stereo unspecified) | 25.1 | inactive | inactive | inactive | inactive | inactive
2 | NC1CCc2ccccc2C1 (stereo unspecified) | -0.7 | – | – | – | – | –
3 | NC1CCc2c(ccc(O)c2O)C1 (stereo unspecified) | 6.5 | inactive | inactive | inactive | – | –
